Laboratory results published in patent US11465987B2, “Compounds for treatment of cancer” (ONCTERNAL THERAPEUTICS, INC., priority 2012, dated 2022).
Like-named read-outs stand apart in the source and are kept apart here.

Columns and labels:
[1] = tested on: PC-3 xenograft; test: In vivo PC-3 prostate tumor xenograft
[2] = tested on: PC-3 cells; test: Apoptosis detection by ELISA (cytoplasmic DNA-histone complexes), PC-3; format: cell-based, human; conditions: PC-3 and A375 cells, 24 h
Source text: Quantification of the Enrichment of Mono- and oligonucleosomes in the cytoplasm was used to determine the ability of the compounds to induce apoptosis (cell death detection ELISA PLUS, Roche, Germany) following the manufacturer's instructions.

[3] = in vivo; conditions: male, ICR, mouse, plasma, iv, 15 mg/kg
[4] = tested on: NCI/ADR-RES (P-gp over-expressing resistant line of OVCAR-8); test: Cytotoxicity (SRB) assay, NCI/ADR-RES; format: cell-based, human; conditions: NCI/ADR-RES versus OVCAR-8
[5] = tested on: PC-3 human prostate cancer cell line; test: cells; conditions: Homo sapiens
Source text: (§1) Cells were stained with SRB solution.

[6] = tested on: melanoma and prostate cancer cell lines; test: Antiproliferative activity summarised over the cell line panel (range or average); format: cell-based; conditions: read-out: IC50 (range over tested cell lines)
[7] = tested on: PPC-1 human prostate cancer cell line; test: Cytotoxicity (SRB) assay, PPC-1; format: cell-based; conditions: Homo sapiens
Source text: as §1

[8] = tested on: B16-F1 mouse melanoma cell line; test: Cytotoxicity (SRB) assay, B16-F1; format: cell-based; conditions: Mus musculus
[9] = tested on: DU 145 human prostate cancer cell line; test: Cytotoxicity (SRB) assay, DU 145; format: cell-based; conditions: Homo sapiens
Source text: as §1

[10] = tested on: LNCaP human prostate cancer cell line; test: Cytotoxicity (SRB) assay, LNCaP; format: cell-based; conditions: Homo sapiens, LNCaP
Source text: as §1

[11] = tested on: A375 human melanoma cell line; test: Cytotoxicity (SRB) assay, A375; format: cell-based; conditions: Homo sapiens
[12] = Aqueous solubility, Multiscreen Solubility Filter Plate, PBS pH 7.4
[13] = Pharmacokinetic study in Sprague-Dawley rats; conditions: rat
[14] = tested on: PC-3 cells; test: Cell cycle analysis (PI staining, FACS), PC-3; format: cell-based; conditions: Homo sapiens, read-out: G2M phase arrest EC50
Experimental: Cell cycle distribution was determined by propidium iodide (PI) staining. Treated cells were washed with PBS and fixed with 70% ice-cold ethanol overnight. Fixed cells were then stained with 20 μg/mL of PI in the presence of RNase A (300 μg/mL) at 37° C. for 30 min. Cell cycle distribution was analyzed by fluorescence-activated cell sorting (FACS) analysis core services at the University of Tennessee Health Science Center, TN.
Flow cytometry was performed to study the effects of the compounds on cell cycle distribution. […] Cellular DNA was stained with 100 μg/mL propidium iodide and 100 μg/mL RNase A in PBS and flow cytometry was performed to determine the cell cycle distribution of the cells.

[15] = tested on: T1, tubulin colchicine binding site; test: [3H]-colchicine competition-binding scintillation proximity assay; conditions: SPA, 0.03-100 μM
T1 construct: […]

[16] = tested on: WM-164 melanoma cells; test: Microtubule imaging (immunofluorescence); format: cell-based, human; conditions: WM-164 cells, 18 h
Source text: Primary antibody for tubulin and fluorescence-labeled secondary antibody were subsequently added to the cells. Cell nuclei were stained by DAPI. Whole Cell Stain Green was also applied to all cells. All images were acquired with an Olympus IX71 inverted fluorescence microscope (Olympus Corp., Tokyo, Japan) with overlays from separate images of tubulin (red), nuclei (blue), and whole cells (green).

[17] = tested on: HUVEC capillary tube formation on Matrigel; test: Capillary formation assay; format: cell-based, human; conditions: at toxic concentration
[18] = tested on: HUVEC (Human Umbilical Vein Endothelial Cells); test: Endothelial cell growth inhibition (SRB); format: cell-based; conditions: HUVEC vs prostate cancer cells
[19] = tested on: confluent HUVEC monolayers; test: Endothelial monolayer permeability assay; conditions: FITC-dextran leakage, 1, 2, 4 h
[20] = tested on: MES-SA/DX5 cells; test: Growth inhibition (SRB) assay, MES-SA/Dx5; format: cell-based; conditions: Homo sapiens, MES-SA/Dx5
[21] = tested on: MES-SA cells; test: Growth inhibition (SRB) assay, MES-SA; format: cell-based; conditions: Homo sapiens
[22] = tested on: OVCAR-8 human ovarian cell line; test: Cytotoxicity (SRB) assay, OVCAR-8; format: cell-based; conditions: Table 14B, parental cell line, read-out: IC50 ± SEM, OVCAR-8
[23] = tested on: tubulin (colchicine, vinblastine and paclitaxel binding sites); test: MS competition binding assay; conditions: competitive mass binding assay
Source text: Each reaction was run in triplicate.

[24] = tested on: MDA-MB-435/LCCMDR1 multidrug-resistant melanoma cells; test: Cytotoxicity (SRB) assay, MDA-MB-435/LCCMDR1; format: cell-based
[25] = tested on: WM-164 human melanoma cell line; test: Cytotoxicity (SRB) assay, WM-164; format: cell-based; conditions: Homo sapiens, n = 3, read-out: IC50 ± SEM, WM-164
[26] = tested on: MDA-MB-435 parental nonresistant melanoma cells; test: Cytotoxicity (SRB) assay, MDA-MB-435; format: cell-based; conditions: Homo sapiens
[27] = tested on: BCRP resistant cell line; test: Cytotoxicity in BCRP-mediated resistant cell line; conditions: read-out: IC50 ± SEM, HEK293-482R2
[28] = Rotarod test (in vivo neurotoxicity); parameters: species or system mouse; conditions: ICR mice, i.p. daily; 1h 5 or 15 mg/kg, vinblastine 0.5 mg/kg
Experimental: ICR mice received training three times a day for two days to enable them to stay on the rotating rod for >120 seconds at 12 rpm. Mice were then randomized by the length of time that they could stay on the rotating rod and divided into 7-8 mice per group. […] The rotarod test was performed twice a week. […] The rod speed was increased from […] to 40 rpm over a period of 5 min. Performance was measured as the length of time that a mouse could stay on the rotating rod.

[29] = tested on: A375MA2 melanoma cell line; test: Cytotoxicity assay, A375MA2; format: cell-based; conditions: Table 14B, n = 3; read-out: IC50 ± SEM, A375MA2
[30] = tested on: HEK293-pcDNA3.1 cells; test: Cytotoxicity assay, HEK293-pcDNA3.1 (parental line of the MRP/BCRP sublines); format: cell-based; conditions: Table 14B; parental cell line; read-out: IC50 ± SEM, HEK293-pcDNA3.1
[31] = read-out: IC50 PC-3, SRB assay, prostate cancer PC-3
[32] = read-out: IC50 ± SEM, PC-3, Table 21, n = 3
[33] = PPC-1, SRB assay, prostate cancer PPC-1, read-out: IC50 PPC-1
[34] = B16-F1, SRB assay, mouse melanoma B16-F1, read-out: IC50 B16-F1
[35] = DU-145, SRB assay, prostate cancer DU 145, read-out: IC50 DU 145
[36] = SRB assay, prostate cancer LNCaP, read-out: IC50 LNCaP
[37] = A-375, SRB assay, human melanoma A375, read-out: IC50 A375
[38] = IV, 1h and 2r […], 5Ha and 5Hc 5 mg/kg

COc1cc(C(=O)c2csc(-c3ccc(O)cc3)n2)cc(OC)c1OC [2l, (2-(4-Hydroxyphenyl)thiazol-4-yl)(3,4,5-trimethoxyphenyl)methanone]
% T/C ([1]; PC-3, 50 mg/kg i.p.): 34% | % T/C ([1]; Prostate (PC-3) xenograft, 50 mg/kg i.p.): 34% | concentration inducing apoptosis [2]: greater than or equal to 200 nM | AUC [3]: 2600 ng·h/mL | Vd [3]: 16.5 L/kg | clearance [3]: 90 mL/min/kg | half-life [3]: 12.3 h | Resistance factor [4]: 0.4 | IC50 [5, 31]: 87 nM | IC50 [5, 32]: 87 ± 5 nM | IC50 [6]: 76 to 116 nM

COc1cc(C(=O)c2csc(-c3ccc(CN)cc3)n2)cc(OC)c1OC.Cl [2r, (2-(4-(Aminomethyl)phenyl)thiazol-4-yl)(3,4,5-trimethoxyphenyl)methanone hydrochloride]
IC50 [7, 33]: 34 nM | IC50 [8, 34]: 38 ± 11 nM | IC50 [9, 35]: 25 nM | IC50 [10, 36]: 13 nM | IC50 [11, 37]: 41 ± 13 nM | increase of solubility ([12]; HCl salt, PBS): over 35 fold | aqueous solubility in PBS ([12]; PBS pH 7.4): over 35 μg/mL | IC50 [5, 31]: 80 nM | IC50 [6]: 13 to 80 nM | F, percent oral bioavailability [13]: 0.2% | CL, systemic clearance [13, 38]: 22 ± 13 mL/min/kg | Vss, volume of distribution following intravenous dosing [13, 38]: 0.33 ± 0.25 L/kg | Cmax, PO ([13]; PO, 1h, 5Ha, 5Hc 10 mg/kg, 2r 4 mg/kg): 3794 ± 1580 ng/mL

COc1cc(-c2nccc3ccc(-c4ccc5[nH]ccc5c4)cc23)cc(OC)c1OC [6a]
EC50 [14]: 53.4 nM | IC50 ([5]; read-out: IC50, PC-3, Table 7): 64.4 ± 12.2 nM

c1cc2ccc(-c3ccc4[nH]ccc4c3)cc2c(-c2ccc3[nH]ccc3c2)n1 [6b, 1,7-Bis-(1H-indol-5-yl)-isoquinoline]
EC50 [14]: 91.9 nM

COc1cc(C(=O)c2c[nH]c(-c3ccc(C)cc3)n2)cc(OC)c1OC [12da, (2-(p-tolyl)-1H-imidazol-4-yl)(3,4,5-trimethoxyphenyl)methanone]
colchicine site binding in words [15]: highest binding affinity | effect on microtubules in words [16]: microtubule fragmentation

COc1cccc2c1C(=O)c1c(O)c3c(c(O)c1C2=O)C[C@@](O)(C(=O)CO)C[C@@H]3O[C@H]1C[C@H](N)[C@H](O)[C@H](C)O1 [doxorubicin]
capillary construction in words [17]: did not affect the capillary construction | times more active against endothelial cells than against cancer cells [18]: not specific to endothelial cells | permeability of endothelial cell monolayer in words [19]: did not induce any change

CC(=O)O[C@H]1C(=O)[C@@]2(C)[C@H]([C@H](OC(=O)c3ccccc3)[C@]3(O)C[C@H](OC(=O)[C@H](O)[C@@H](NC(=O)c4ccccc4)c4ccccc4)C(C)=C1C3(C)C)[C@]1(OC(C)=O)CO[C@@H]1C[C@@H]2O [paclitaxel, reference compound]
colchicine site binding in words [15]: only a flat line | effect on microtubules in words [16]: condensation of microtubules

CC[C@]1(O)C[C@@H]2CN(CCc3c([nH]c4ccccc34)[C@@](C(=O)OC)(c3cc4c(cc3OC)N(C)[C@H]3[C@@](O)(C(=O)OC)[C@H](OC(C)=O)[C@]5(CC)C=CCN6CC[C@]43[C@@H]65)C2)C1 [vinblastine, Vinblastine, reference compound]
IC50 [7, 33]: […] | IC50 ([7]; PPC-1, Table 7, read-out: IC50, PPC-1): […] | IC50 ([20]; SRB assay): 16 nM | IC50 ([20]; Table 7, P-gp over-expressed): 45.7 ± 5.3 nM | IC50 ([21]; SRB assay): 1.4 nM | IC50 ([21]; Table 7, parental line): 2.3 ± 0.8 nM | IC50 [22]: 2 ± 0.1 nM | IC50 [8, 34]: 4.7 nM | IC50 ([8]; B16-F1, Table 14A, n = 3, read-out: IC50 ± SEM, B16-F1 (converted)): 4.7 ± 0.7 nM | IC50 ([8]; B16-F1, Table 14B, n = 3, read-out: IC50 ± SEM, B16-F1 (converted)): 5 ± 1 nM | IC50 ([8]; B16-F1, Table 21, n = 3, read-out: IC50 ± SEM, B16-F1 (converted)): 4.7 ± 0.7 nM | competition for tubulin binding sites in words [23]: did not inhibit the colchicine-tubulin binding | IC50 [9, 35]: 1.8 nM | IC50 ([9]; DU-145, Table 7, read-out: IC50, DU-145): 2.6 ± 1 nM | IC50 ([9]; DU-145, Table 21, n = 3, read-out: IC50 ± SEM, Du-145): 1.8 ± 1.1 nM | IC50 [10, 36]: […] | IC50 ([10]; Table 7, read-out: IC50, LNCaP): 3.4 ± 0.9 nM | IC50 ([10]; Table 21, n = 3, read-out: IC50 ± SEM, LNCaP (converted)): […] | % T/C ([1]; PC-3, 0.5 mg/kg q2d, day 22): 29% | IC50 [11, 37]: 1 nM | IC50 ([11]; A-375, Table 14A, n = 3, read-out: IC50 ± SEM, A375 (converted)): […] | IC50 ([11]; A-375, Table 14B, n = 3, read-out: IC50 ± SEM, A375 (converted)): 1 ± 0.1 nM | IC50 ([11]; A-375, Table 21, n = 3, read-out: IC50 ± SEM, A375 (converted)): […] | IC50 ([24]; Homo sapiens, MDA-MB-435/LCCMDR1, read-out: IC50 MDR melanoma cell line): 277 to 658 nM | P-gp substrate / multidrug resistance in words ([24]; MDR melanoma line vs sensitive parent line): substrates for P-glycoprotein (P-gp) | IC50 ([25]; WM164, Table 14A): 0.6 ± 0.1 nM | IC50 ([25]; WM164, Table 14B): 0.6 ± 0.1 nM | IC50 ([26]; Table 14A, sensitive parent cell line, read-out: IC50 ± SEM, MDA-MB-435 (converted)): 0.4 ± 0.1 nM | IC50 ([26]; read-out: IC50 nonresistant melanoma cell line): 0.5 to 10 nM | IC50 [27]: 25 ± 1 nM | rotarod performance in words [28]: gradually reduced the time | IC50 ([5]; read-out: IC50, PC-3, Table 7): 1.4 ± 0.3 nM | IC50 [5, 31]: 2.1 nM | IC50 [5, 32]: 2.1 ± 0.2 nM | IC50 [29]: 1 ± 0.2 nM | IC50 [30]: 5 ± 0.1 nM
